Here are results for 19 compounds from patent US20090004185A1, “AMINO-SUBSTITUTED QUINAZOLINE DERIVATIVES AS INHIBITORS OF BETA-CATENIN/TCF-4 PATHWAY AND CANCER TREATMENT AGENTS” (WYETH, priority 2007, published 2009).

For one assay, the system named is β-catenin/Tcf-4. In words: cells. It is filed as cell-based. The conditions noted are these: Homo sapiens, 24 hours of incubation with compound, ratio Firefly/Renilla luciferase. The method, boiled down: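 SW480-derived lines with integrated reporters (Tcf-4-driven firefly luciferase; SV40 firefly as specificity control; SV40 Renilla for cell number/toxicity), treated 24 hours with titrated compounds, final 0.316% DMSO. Dual-luciferase read-out; firefly/Renilla ratio as % of control, duplicate plates, IC50 (nM) from curve fit.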

In the next assay the test system is SV40-Luc. The assay is described as follows: SV40-Luc control luciferase reporter assay, SV 5A8 cell line (SV40-Luc and SV40-R-Luc), control for non-specific inhibitors. The class given is cell-based, human. The following applies: Homo sapiens, SV5A8, 24 h, SV 5A8 cells derived from SW480; 24 hours of incubation with compound; ratio Firefly/Renilla luciferase. The method, boiled down: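 Stable SW480 reporter clones are exposed to compound dilutions for 24 h at 0.316% DMSO. Firefly signal, Tcf-4- or SV40-driven, is divided by SV40-Renilla signal, and IC50 is derived from this ratio relative to control.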
On the technique in general: A reporter such as luciferase makes a cellular process visible.

The mark [1] stands for this setting: SW480, 24 h, Tcf 33.13 cells derived from SW480.
The mark [2] stands for this setting: Tcf22C11, 24 h, Tcf 22C11 cells derived from SW480.

In the case of `Cc1cccc2c(NCc3ccc(NC(=O)C4CCN(Cc5ccccc5)CC4)cc3)nc(N(C)C)nc12` [Example 76, 1-benzyl-N-[4-({[2-(dimethylamino)-8-methylquinazolin-4-yl]amino}methyl)phenyl]piperidine-4-carboxamide], the values for the half-maximal inhibitory concentration (IC50) in the assay with β-catenin/Tcf-4 (setting [1]), in the assay with β-catenin/Tcf-4 (setting [2]) and in the assay on SV40-Luc were 2150 nM, 1560 nM and over 9170 nM, respectively.

Turning to `Cc1ccc2c(NCc3ccc(NC(=O)c4ccc(Cl)nc4)cc3)nc(N(C)C)nc2c1` [Example 242, 6-chloro-N-[4-({[2-(dimethylamino)-7-methylquinazolin-4-yl]amino}methyl)phenyl]nicotinamide], the IC50 (usually the concentration that inhibits the measured activity by half) in the assay on β-catenin/Tcf-4 (setting [1]) was 336 nM; with β-catenin/Tcf-4 (setting [2]), 318 nM; in the assay with SV40-Luc, over 5590 nM.

For the compound `Cc1c(F)ccc2c(NCc3ccc(NC(=O)c4ccc(Cl)nc4)cc3)nc(N(C)C)nc12` [Example 64, 6-chloro-N-[4-({[2-(dimethylamino)-7-fluoro-8-methylquinazolin-4-yl]amino}methyl)phenyl]nicotinamide], the figures for the half-inhibitory concentration (IC50) in the assay on β-catenin/Tcf-4 (setting [1]), with β-catenin/Tcf-4 (setting [2]) and in the assay on SV40-Luc were 8960 nM, 11100 nM and over 10800 nM, respectively.

With `Cc1ccc2c(NCc3ccc(NC(=O)C4CCN(Cc5ccc(Cl)nc5)CC4)cc3)nc(N(C)C)nc2c1` [Example 259, 1-[(6-chloropyridin-3-yl)methyl]-N-[4-({[2-(dimethylamino)-7-methylquinazolin-4-yl]amino}methyl)phenyl]piperidine-4-carboxamide], the 50% inhibitory concentration (IC50) in the assay on β-catenin/Tcf-4 (setting [1]) was 415 nM; in the assay on β-catenin/Tcf-4 (setting [2]), 573 nM; in the assay with SV40-Luc, over 8100 nM.

Turning to `CN(C)c1nc(NCc2ccc(NC(=O)c3ccc(F)cc3)cc2)c2ccc(C3CC3)cc2n1` [Example 104, N-[4-({[7-cyclopropyl-2-(dimethylamino)quinazolin-4-yl]amino}methyl)phenyl]-4-fluorobenzamide], the IC50 is 666 nM in the assay with β-catenin/Tcf-4 (setting [1]), 1010 nM in the assay with β-catenin/Tcf-4 (setting [2]) and over 2540 nM in the assay with SV40-Luc.

For `C=Cc1ccc2c(N[C@@H](C)c3ccc(NC(=O)c4ccc(Cl)nc4)cc3)nc(N(C)C)nc2c1` [Example 106, 6-chloro-N-[4-((1S)-1-{[2-(dimethylamino)-7-vinylquinazolin-4-yl]amino}ethyl)phenyl]nicotinamide], the results for the IC50 with β-catenin/Tcf-4 (setting [1]), with β-catenin/Tcf-4 (setting [2]) and in the assay on SV40-Luc were 393 nM, 551 nM and over 9820 nM, respectively.

As for `CNc1nc(NCc2ccc(NC(=O)c3ccc(F)c(C)c3)cc2)c2ccccc2n1` [Example 17, 4-fluoro-3-methyl-N-[4-({[2-(methylamino)quinazolin-4-yl]amino}methyl)phenyl]benzamide], the 50% inhibitory concentration (IC50) was over 6020 nM in the assay on β-catenin/Tcf-4 (setting [1]), 7510 nM in the assay with β-catenin/Tcf-4 (setting [2]) and over 12000 nM in the assay with SV40-Luc.

For the compound `CNc1nc(NCc2ccc(NC(=O)C3CCN(Cc4ccccc4)CC3)cc2)c2cc(C)ccc2n1` [Example 149, 1-benzyl-N-[4-({[6-methyl-2-(methylamino)quinazolin-4-yl]amino}methyl)phenyl]piperidine-4-carboxamide], the IC50 in the assay on β-catenin/Tcf-4 (setting [1]) is 726 nM; in the assay on β-catenin/Tcf-4 (setting [2]), 606 nM; in the assay with SV40-Luc, over 2530 nM.

For the compound `Cc1ccc2c(NCc3ccc(NC(=O)c4ccc(F)cc4)cc3)nc(NCCCN3CCN(C)CC3)nc2c1` [Example 229, 4-fluoro-N-(4-{[(7-methyl-2-{[3-(4-methylpiperazin-1-yl)propyl]amino}quinazolin-4-yl)amino]methyl}phenyl)benzamide], the values for the IC50 in the assay on β-catenin/Tcf-4 (setting [1]), with β-catenin/Tcf-4 (setting [2]) and in the assay on SV40-Luc were 2320 nM, 2190 nM and over 4620 nM, respectively.

In the case of `Cc1ccc2c(NCc3ccc(NC(=O)C4CCN(Cc5ccc(F)cc5Cl)CC4)cc3)nc(N(C)C)nc2c1` [Example 258, 1-(2-chloro-4-fluorobenzyl)-N-[4-({[2-(dimethylamino)-7-methylquinazolin-4-yl]amino}methyl)phenyl]piperidine-4-carboxamide], the IC50 is 215 nM in the assay with β-catenin/Tcf-4 (setting [1]), 521 nM in the assay with β-catenin/Tcf-4 (setting [2]) and over 7890 nM in the assay with SV40-Luc.

As to `Cc1ccc2nc(N(C)C)nc(N[C@@H](C)c3ccc(NC(=O)c4ccc(Cl)nc4)cc3)c2c1` [Example 274, (S)-6-chloro-N-(4-(1-(2-(dimethylamino)-6-methylquinazolin-4-ylamino)ethyl)phenyl)nicotinamide], the figures for the half-inhibitory concentration (IC50) with β-catenin/Tcf-4 (setting [1]), with β-catenin/Tcf-4 (setting [2]) and in the assay with SV40-Luc were 1840 nM, 1010 nM and over 9360 nM, respectively.

Regarding `CCN(CC)c1nc(NCc2ccc(NC(=O)c3ccc(F)cc3)cc2)c2cc(C)ccc2n1` [Example 43, N-[4-((2-(diethylamino)-6-methylquinazolin-4-ylamino)methyl)phenyl)-4-fluorobenzamide], the 50% inhibitory concentration (IC50) was 492 nM in the assay with β-catenin/Tcf-4 (setting [1]), 738 nM in the assay on β-catenin/Tcf-4 (setting [2]) and over 5460 nM in the assay on SV40-Luc.

In the case of `O=C(Nc1ccc(CNc2nc(NCc3ccco3)nc3ccc(C(F)(F)F)cc23)cc1)c1ccc(Cl)cc1` [Example 168, 4-chloro-N-[4-({[2-[(2-furylmethyl)amino]-6-(trifluoromethyl)quinazolin-4-yl]amino}methyl)phenyl]benzamide], the half-inhibitory concentration (IC50) with β-catenin/Tcf-4 (setting [1]) was 1280 nM; in the assay with β-catenin/Tcf-4 (setting [2]) it was 2810 nM; in the assay on SV40-Luc, over 9060 nM.

On to `Cc1ccc2c(NCc3ccc(NC(=O)C4CCN(C)CC4)cc3)nc(N(C)C)nc2c1` [Example 243, N-[4-({[2-(dimethylamino)-7-methylquinazolin-4-yl]amino}methyl)phenyl]-1-methylpiperidine-4-carboxamide], for which the IC50 was 1680 nM with β-catenin/Tcf-4 (setting [1]), 1920 nM with β-catenin/Tcf-4 (setting [2]) and over 23100 nM in the assay on SV40-Luc.

For the compound `Cc1ccc2c(NCc3ccc(NC(=O)C4CCN(Cc5ccccc5F)CC4)cc3)nc(N(C)C)nc2c1` [Example 252, N-[4-({[2-(dimethylamino)-7-methylquinazolin-4-yl]amino}methyl)phenyl]-1-(2-fluorobenzyl)piperidine-4-carboxamide], the IC50 in the assay with β-catenin/Tcf-4 (setting [1]) is 332 nM; in the assay on β-catenin/Tcf-4 (setting [2]), 568 nM; in the assay on SV40-Luc, over 8340 nM.

In the case of `CN(C)c1nc(NCc2ccc(NC(=O)c3ccc(Cl)cc3)cc2)c2cc(C(F)(F)F)ccc2n1` [Example 161, 4-chloro-N-[4-({[2-(dimethylamino)-6-(trifluoromethyl)quinazolin-4-yl]amino}methyl)phenyl]benzamide], the results for the IC50 in the assay on β-catenin/Tcf-4 (setting [1]), with β-catenin/Tcf-4 (setting [2]) and with SV40-Luc were 1520 nM, 1710 nM and over 10000 nM, respectively.

Consider `CN(C)c1nc(NCc2ccc(NC(=O)c3ccc(F)cc3)cc2)c2cc(CO)ccc2n1` [Example 71, N-[4-({[2-(dimethylamino)-6-(hydroxymethyl)quinazolin-4-yl]amino}methyl)phenyl]-4-fluorobenzamide], for which the IC50 is 2340 nM in the assay on β-catenin/Tcf-4 (setting [1]), 2990 nM with β-catenin/Tcf-4 (setting [2]) and over 11200 nM with SV40-Luc.

In the case of `CNc1nc(NCc2ccc(NC(=O)c3ccc(Cl)cc3F)cc2)c2cc(C)cc(C)c2n1` [Example 35, 4-chloro-N-[4-({[6,8-dimethyl-2-(methylamino)quinazolin-4-yl]amino}methyl)phenyl]-2-fluorobenzamide], the 50% inhibitory concentration (IC50) in the assay with β-catenin/Tcf-4 (setting [1]), in the assay with β-catenin/Tcf-4 (setting [2]) and with SV40-Luc was over 21600 nM throughout.

Regarding `CCN(CC)c1nc(NCc2ccc(NC(=O)C3CCN(Cc4ccc(F)cc4)CC3)cc2)c2cc(C(F)(F)F)ccc2n1` [Example 158, N-[4-({[2-(diethylamino)-6-(trifluoromethyl)quinazolin-4-yl]amino}methyl)phenyl]-1-(4-fluorobenzyl)piperidine-4-carboxamide], the IC50 with β-catenin/Tcf-4 (setting [1]) was 3850 nM; in the assay with β-catenin/Tcf-4 (setting [2]), over 4110 nM; in the assay on SV40-Luc it was over 8210 nM.
